These are literature values, as cited in patent US4181677A, “2-Benzoyl-3-alkoxy-2-alkenonitriles” (American Cyanamid Company, priority 1978, dated 1980).

The data set relates to joint and bone deterioration. The following applies: S. Wong et al. (1973); G. R. Bobalick et al. (1974).

In the case of `COc1ccc2c(c1)c(CC(=O)O)c(C)n2C(=O)c1ccc(Cl)cc1` [Indomethacin], the “prevention of joint and bone deterioration” value was “prevent joint and bone deterioration”.
